Data as given in patent US10414745B2, “Phenol derivatives to treat cancer” (FUNDACIÓN MEDINA. CENTRO DE EXCELENCIA EN INVESTIGACIÓN DE …, priority 2015, dated 2019).
Where two headings read alike, the source gives them in different places.

Tests used:
[1] = system: Cancer Stem Cells MiaPaca_2; assay: MTT assay, synergism with Gemcitabine, Cancer Stem Cells MiaPaca_2; type: cell-based; conditions: Homo sapiens, MIA PaCa-2; Cancer Stem Cells MiaPaca_2, Gemcitabine alone; read-out: IC50, dose-response curve of Gemcitabine
Method: In order to study if treatment with MDN-0090 could be used in synergism with the most common pancreatic chemotherapic drug (Gemcitabine), MTT assay was performed using tumor cell lines (MiaPaca_2 and BxPC3) and cancer stem cells (MiaPaca_2 and BxPC3). In this way different Gemcitabine concentrations (0.00025-5 μM) were used with MDN-0090 dose response curves (0.39-50 μM) and vice versa. With this assay, we observed that the activity of both compounds (Gemcitabine and MDN-0090) increased when were administered together. (Tables 14-19)

MiaPaca_2 = assay: MTT assay in MiaPaca_2 tumoral pancreatic cell line; type: cell-based; conditions: Homo sapiens, MIA PaCa-2; 72 hours of treatment; read-out: ED50 MiaPaca_2 (MTT assay)
Method: (§1) The activity of the compounds was detected using tumoral pancreatic cell lines (MiaPaca-2 and BxPC3). For this purpose MTT test was used. Cells were seeded at […], and treated with the compound during 72 hours.

BxPC3 = assay: MTT assay in BxPC3 tumoral pancreatic cell line; type: cell-based; conditions: Homo sapiens, BXPC-3; 72 hours of treatment; read-out: ED50 BxPC3 (MTT assay)
Method: as §1

MiaPaca 2 cell line = assay: ApoTox-Glo Triplex Assay (viability, citotoxicity, apoptosis); type: cell-based; conditions: Homo sapiens, MIA PaCa-2, MiaPaca_2, 72 hours of treatment
Method: The MiaPaca 2 cell line was used for further evaluation of the MDN-0089, MDN-0090, MDN-0092 and MDN-0093 activity. The ApoTox-Glo™ Triplex Assay was used to evaluate three parameters (viability, citotoxicity and apoptosis).
Viability: The live-cell protease activity is restricted to intact viable cells and is measured using a fluorogenic, cell-permeant, peptide substrate (glycylphenylalanyl-aminofluorocoumarin; GF-AFC). The substrate enters intact cells where it is cleaved by the live-cell protease activity to generate a fluorescent signal proportional to the number of living cells
Cytotoxicity: Fluorogenic cell-impermeant peptide substrate (bis-alanylalanyl-phenylalanyl-rhodamine 110; bis-AAF-R110) is used to measure dead-cell protease activity, which is released from cells that have lost membrane integrity. Because bis-AAF-R110 is not cell-permeant, essentially no signal from this substrate is generated by intact, viable cells
Apoptosis: The assay uses the Caspase-Glo® Assay Technology by providing a luminogenic caspase-3/7 substrate, which contains the tetrapeptide sequence DEVD, in a reagent optimized for caspase activity, luciferase activity and cell lysis.

MiaPaca_2 cell line = assay: CFSE assay (cell cycle inhibition, High content screening); type: cell-based; conditions: Homo sapiens, MIA PaCa-2; MiaPaca_2, 72 hours of treatment; read-out: ED50 CFSE assay
Method: To evaluate the potency of the MDN-0089, MDN-0090, MDN-0092 and MDN-0093, dye CFSE and High content screening (HCS) equipment were used. MiaPaca_2 cell line was used. Cells were seeded in 96 wells plates at 10.000 cells/well. Medium was removed and compounds and standards were added in fresh medium at different concentrations, (1 μL of compound/200 μL fresh medium). The DMSO concentration was 0.5% in all wells. After 72 hours of incubation (37° C., 5% CO2), plates were read in HCS equipment.

pERK1/2 = assay: Western blot pERK1_2 (Ras/Raf/MEK/ERK pathway inhibition); type: cell-based; conditions: 24 hours of treatment, untreated 0.38
Source text: Western blot technique was used, using an Odissey Licor equipment to read the membranes. pERK1_2 antibody was used as first antibody and as second antibody we used anti-mouse antibodies. Then, the membranes were quantified using β-actin.

HepG2 = assay: Cytotoxicity on HepG2; type: cell-based; conditions: for activity effect on HepG2 (in words): 72 hours; for IC50: Homo sapiens, HepG2, 72 hours, read-out: IC50 Cytoxicity
p-ERK = assay: AlphaScreen Surefire p-ERK kit assay; type: cell-based; conditions: 24 hours of treatment, read-out: Inflexion point (AlphaScreen)
Method: This effect was checked for MDN-0090 with a p-ERK kit (Perkin Elmer). Cells were seeded into 96 wells/plate at 75000 cells/well. 24 hours later the medium was removed and the compound was added with fresh medium. After 24 hours of treatment, cells were lysed. 15 μL of the lysate and 15 μL of reagents were added. After 2 hours of incubation, plate was read using an EnVision equipment to read AlphaScreen assay (AlphaScreen signal (Luminiscent/fluorescent). See table 11 and FIG. 2.

CSCs MiaPaca_2 = assay: MTT test on pancreatic Cancer Stem Cells MiaPaca_2; type: cell-based; conditions: Homo sapiens, MIA PaCa-2, read-out: ED50 CSCs MiaPaca_2
Source text: (§2) Two established cell lines derived from two different pancreatic adenocarcinomas: BxPC3 (reference ATCC® CRL-1687), mutated for CDKN2A, MAP2K4, SMAD4 and TP53; and MIA-PaCa-2 (reference ATCC® CRL-1420), mutated for k-RAS were used. These cells lines were maintained with Dulbecco's-Modified Eagle's Medium (DMEM) (Sigma-Aldrich, St. Louis, Mo., USA) supplemented with 10% fetal bovine serum (FBS) (Gibco, Carlsbad, Calif., USA) and 1% penicillin/streptomycin (P/S) (Sigma-Aldrich) in a 75 cm^2 culture flask (B D Falcon, Franklin Lakes, N.J.) unless otherwise indicated. All cells were grown at 37° C. with 5% CO2 in a humidified incubator (Steri-Cult CO2 Incubator, Thermo Electron Corporation, Waltham, Mass., USA). Media were changed every 48-72 hours and cultured cells with a maximum of 80% confluence were passed.
(§3) For the isolation of CSCs subpopulation we used the methodology described in WO 2016/020572.
(§4) The activity of the MDN-0090 was detected using pancreatic Cancer Stem Cell lines (MiaPaca-2 and BxPC3). For this purpose MTT test was used.

CSCs BxPC3 = assay: MTT test on pancreatic Cancer Stem Cells BxPC3; type: cell-based; conditions: Homo sapiens, BXPC-3, read-out: ED50 CSCs BxPC3
Source text: as §2, §3, §4

[2] = system: BxPC3 tumor cell line xenografts; assay: Antitumor activity in heterotopic xenografts, BxPC3; type: in vivo; conditions: BxPC3 xenograft, NSG mice, 20 mg/kg ip three times a week for 50 days
Method: (§5) To evaluate the effect of MDN-0090 on tumor growth heterotopic xenografts were used for both BxPC3 and MIAPaca-2 tumor cell lines. Tumor formation was induced by subcutaneous injection of 5×10^6 cells/mouse in female NOD scid mice gamma (NOD.Cg-Prkdcscid II2rgtm1Wjl/SzJ, NSG) of eight weeks old. Animals (n=40, 10 per group) were housed and maintained at 20° C. to 24° C., 50% humidity a light-dark cycle of 14 to 10 h with food and water ad libitum. Tumors were grown to an average volume of 100 mm^3, after which they were randomly assigned as control groups (saline) and treated with MDN-0090 (20 mg/kg, dissolved in saline) injected ip three times a week for 50 days. Tumor growth was assessed twice weekly using a digital caliper and the tumor volume was calculated by the formula V=(length)^2×width×π/6.

[3] = system: MIAPaca-2 tumor cell line xenografts; assay: Antitumor activity in heterotopic xenografts, MIAPaca-2; type: in vivo; conditions: MIAPaca-2 xenograft, NSG mice, 20 mg/kg ip three times a week for 50 days
Method: as §5

BxPC3 CSCs xenografts = assay: Antitumor activity against CSCs induced tumors; type: in vivo; conditions: BxPC3 CSCs xenograft, NSG mice, 10 mg/kg or 20 mg/kg ip three times a week for 52 days
Method: We evaluated the effect of MDN-0090 on CSCs induced tumors. We isolated and characterized the pancreatic CSCs from BxPC3 cell line using the methodology described previously (WO 2016/020572).
In vivo experiment was performed in male and female NOD scid gamma mice (NSG, NOD.Cg-Prkdcscid II2rgtm1Wjl/SzJ). All animals (n=10 per group) were maintained in a microventilated cage system with a 12-h light/dark cycle, and were manipulated in a laminar air-flow cabinet to keep on the specific pathogen-free conditions.
For the induction of xenografts tumors, mice were anesthetized by inhalation of isofluorane, inoculated with 5×10^4 BxPC3 CSCs by subcutaneously injections into the flank regions. Tumors were grown to an average volume of 100 mm^3, after which they were randomly assigned as control groups (saline) and treatment A with MDN-0090 (10 mg/kg, dissolved in saline) and treatment B (20 mg/kg, dissolved in saline) ip three times a week for 52 days. Tumor growth was assessed twice weekly using a digital caliper and the tumor volume was calculated by the formula V=(length)^2×width×π/6.

BxPC3 tumor cell line = assay: In vivo tumorigenicity assay, BxPC3; conditions: BxPC3 cells treated with MDN-0090 at IC50 for 24 hours before inoculation into NSG mice
Method: (§6) To evaluate the effect of MDN-0090 on the tumorigenicity ability of CSC-like cells heterotopic xenografts using both BxPC3 and MIAPaca-2 tumor cell lines were established. Firstly, we treated cells with MDN-0090 at IC50 for 24 hours and after that cells were inoculated into the animals. Pancreatic cancer non-treated cells were used as control.
(§7) Tumor formation was induced by subcutaneous injection of 1.5×10^4 in vitro treated or non-treated cells/mouse in NOD scid mice gamma (NOD.Cg-Prkdcscid II2rgtm1Wjl/SzJ, NSG). Animals (n=20, 10 per group) were housed and maintained at 20° C. to 24° C., 50% humidity a light-dark cycle of 14 to 10 h with food and water ad libitum. We observed the tumor growth every two days. Tumor growth was assessed using a digital caliper and the tumor volume was calculated by the formula V=(length)^2×width×π/6.

[4] = system: MIAPaca-2 tumor cell line; assay: In vivo tumorigenicity assay, MIAPaca-2; conditions: MIAPaca-2 cells treated with MDN-0090 at IC50 for 24 hours before inoculation into NSG mice
Method: as §6, §7

[5] = read-out: ED50 Apoptosis (Caspase3_7)

| Structure (SMILES) | EC50 (MiaPaca_2) | EC50 (BxPC3) | EC50 (MiaPaca 2 cell line; [5]) | EC50 (MiaPaca 2 cell line; read-out: ED50 Citotoxicity) | EC50 (MiaPaca 2 cell line; read-out: ED50 Viability) | EC50 (MiaPaca_2 cell line) | pERK1_2 (Fluorescence pERK1/2/fluorescence β-actine) (pERK1/2) | activity effect on HepG2 (in words) (HepG2) | IC50 (HepG2) | other results |
| --- | --- | --- | --- | --- | --- | --- | --- | --- | --- | --- |
| Nc1ccn([C@@H]2O[C@H](CO)[C@@H](O)C2(F)F)c(=O)n1 [Gemcitabine] | – | – | – | – | – | – | – | – | – | IC50 [1]: 1.9 µM |
| Cc1cc(O)c(C(=O)c2c(C=O)c(O)cc3c2C(=O)CC(C)(C)O3)c(O)c1 [MDN-0089] | 20.3 µM | 7.63 µM | 29.7 µM | > 50 µM | > 50 µM | 3.33 µM | 0.22 | medium activity effect | 13.6 µM | – |
| CC(C)=CCc1c(O)cc(O)c(C=O)c1C(=O)c1c(O)cc(C)cc1O [MDN-0090, 2,3′,5′,6-tetrahydroxy-2′-formyl-6′-(3-methyl-2-butenyl)-4-methyl-benzophenone] | 8.84 µM | 4.67 µM | 24.9 µM | > 50 µM | 17.3 µM | 5.27 µM | 0.18 | medium activity effect | 19.7 µM | IC50 (p-ERK; 24 h): 9.02 µM; IC50 (p-ERK): 6.12 µM; EC50 (CSCs MiaPaca_2; 12 hours): 20.8 µM; EC50 (CSCs MiaPaca_2; 24 hours): 14 µM; EC50 (CSCs MiaPaca_2; 48 hours): 19.6 µM; EC50 (CSCs MiaPaca_2; 72 hours): 2.18 µM; EC50 (CSCs BxPC3; 12 hours): 14.3 µM; EC50 (CSCs BxPC3; 24 hours): 17 µM; EC50 (CSCs BxPC3; 48 hours): 14 µM; EC50 (CSCs BxPC3; 72 hours): 10.3 µM; tumor size (tumor volume) [2]: reduces the size of tumors; tumor size (tumor volume) [3]: reduces the size of tumors; tumor size (tumor volume) (BxPC3 CSCs xenografts): decreased the size tumor; tumor formation (BxPC3 tumor cell line): reduces tumor formation; tumor formation [4]: reduces tumor formation |
| Cc1cc(O)c(C(=O)c2c(C=O)c(O)cc3c2C=CC(C)(C)O3)c(O)c1 [MDN-0091] | > 50 µM | > 50 µM | – | – | – | – | – | – | – | – |
| COc1cc(O)c(C=O)c(C(=O)c2c(O)cc(C)cc2O)c1CC=C(C)C [MDN-0092] | 7.18 µM | 9.14 µM | > 50 µM | > 50 µM | > 50 µM | 22.9 µM | 0.29 | medium activity effect | 20.4 µM | – |
| COc1cc(O)c(C=O)c(C(=O)c2c(O)cc(C)c(Cl)c2O)c1CC=C(C)C [MDN-0093] | 6.47 µM | 8.7 µM | 18.4 µM | > 50 µM | 14.5 µM | < 3.15 µM | 0.12 | high activity effect | 8.9 µM | – |
| COc1cc(O)c2oc3cc(C)cc(O)c3c(=O)c2c1CC=C(C)C [MDN-0094] | > 50 µM | > 50 µM | – | – | – | – | – | – | – | – |
